Here are results for one molecule from patent EP2505659A1, “Methods for the identification of dioxygenase interacting molecules and for the purification of dioxygenase proteins” (CELLZOME AG, priority 2011, dated 2012).

Counter-ions that a name gives are not always drawn. Like-named read-outs stand apart in the source and are kept apart here.

One assay addresses T1, C17ORF101 (Homo sapiens, UniProt Q6PK18).
T1 construct: capturing and identification of dioxygenases from nuclear protein extracts; endogenous in cells
T1 sequence (Q6PK18 1-331 isoform Q6PK18-2): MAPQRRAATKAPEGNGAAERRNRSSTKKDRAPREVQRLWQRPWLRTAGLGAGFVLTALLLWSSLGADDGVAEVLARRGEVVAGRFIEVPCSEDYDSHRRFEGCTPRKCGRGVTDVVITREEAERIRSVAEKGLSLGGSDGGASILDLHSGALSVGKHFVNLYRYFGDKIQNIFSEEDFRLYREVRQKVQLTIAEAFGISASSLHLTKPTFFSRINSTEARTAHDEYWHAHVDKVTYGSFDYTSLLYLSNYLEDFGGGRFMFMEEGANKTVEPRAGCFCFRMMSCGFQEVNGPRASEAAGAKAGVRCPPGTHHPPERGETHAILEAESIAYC
Briefly: Bead competition binding assay, immobilized compound A, K-562, HL-60 and Jurkat nuclear lysates. As to conditions: read-out: Fold change versus DMSO control, C17ORF101; 100 µM free compound A; HL-60 nuclear lysate. The text has this:
(§1) The proteins bound to the immobilized compound were eluted with detergent-containing buffer and separated on a SDS-polyacryamide gel. […] Table 4: Compound treatment and TMT-labeling of cell samples
(§2) Jurkat cells (ATCC number TIB-152) were either obtained from an external supplier (CIL SA, Mons, Belgium) or grown in one litre Spinner flasks (Integra Biosciences, #182101) in suspension in RPMI 1640 medium (Invitrogen, #21875-034) supplemented with 10% Fetal Bovine Serum (Invitrogen, #10270-106) at a density between 0.2 x 10^6 and 1.0 x 10^6 cells/ml. Cells were harvested by centrifugation, washed once with 1 x PBS buffer (Invitrogen, #14190-094) and cell pellets were frozen in liquid nitrogen and subsequently stored at -80°C.
(§3) Source of HL-60 cells: HL-60 cell line (DSMZ, Braunschweig, Germany; DSMZ number ACC3). K562 cells were also purchased from DSMZ (Braunschweig, Germany).
(§4) Extracts of nuclei were prepared according to the Dignam protocol (Dignam et al., 1983. Nucleic Acids Res. 11 (5):1475-89).
(§5) The TMT reagents are a set of multiplexed, amine-specific, stable isotope reagents that can label peptides on amino groups in up to six different biological samples enabling simultaneous identification and quantitation of peptides. The TMT reagents were used according to instructions provided by the manufacturer. The samples were resuspended in 10 µl 50 mM TEAB solution, pH 8.5 and 10 µl acetonitril were added. The TMT reagent was dissolved in acetonitrile to a final concentration of 24 mM and 10 µl of reagent solution were added to the sample. The labeling reaction was performed at room temperature for one hour on a horizontal shaker and stopped by adding 5 µl of 100 mM TEAB and 100 mM glycine in water. The labeled samples were then combined, dried in a vacuum centrifuge and resuspended in 60% 200mM TEAB / 40% acetonitril.
(§6) Table 5: Peptide elution off the LC system
(§7) Search criteria varied depending on which mass spectrometer was used for the analysis.

A further assay deals with T2, P4HA1 (Homo sapiens, UniProt P13674).
T2 construct: endogenous in cells
T2 sequence (P13674 18-534): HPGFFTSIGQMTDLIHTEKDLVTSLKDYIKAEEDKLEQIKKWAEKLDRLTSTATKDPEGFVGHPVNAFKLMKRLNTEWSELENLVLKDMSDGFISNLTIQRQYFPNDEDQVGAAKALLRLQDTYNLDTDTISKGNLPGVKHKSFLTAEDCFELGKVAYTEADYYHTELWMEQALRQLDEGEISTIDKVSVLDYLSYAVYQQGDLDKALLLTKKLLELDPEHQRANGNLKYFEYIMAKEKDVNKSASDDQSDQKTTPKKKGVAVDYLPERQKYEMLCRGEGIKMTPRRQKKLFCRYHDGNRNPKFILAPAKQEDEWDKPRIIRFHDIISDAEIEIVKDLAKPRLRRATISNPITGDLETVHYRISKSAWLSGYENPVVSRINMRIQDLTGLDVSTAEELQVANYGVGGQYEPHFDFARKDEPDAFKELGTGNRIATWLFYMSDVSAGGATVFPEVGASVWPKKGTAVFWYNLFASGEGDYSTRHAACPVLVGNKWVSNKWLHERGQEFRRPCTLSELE
T2 sequence (P07237 18-508 partner): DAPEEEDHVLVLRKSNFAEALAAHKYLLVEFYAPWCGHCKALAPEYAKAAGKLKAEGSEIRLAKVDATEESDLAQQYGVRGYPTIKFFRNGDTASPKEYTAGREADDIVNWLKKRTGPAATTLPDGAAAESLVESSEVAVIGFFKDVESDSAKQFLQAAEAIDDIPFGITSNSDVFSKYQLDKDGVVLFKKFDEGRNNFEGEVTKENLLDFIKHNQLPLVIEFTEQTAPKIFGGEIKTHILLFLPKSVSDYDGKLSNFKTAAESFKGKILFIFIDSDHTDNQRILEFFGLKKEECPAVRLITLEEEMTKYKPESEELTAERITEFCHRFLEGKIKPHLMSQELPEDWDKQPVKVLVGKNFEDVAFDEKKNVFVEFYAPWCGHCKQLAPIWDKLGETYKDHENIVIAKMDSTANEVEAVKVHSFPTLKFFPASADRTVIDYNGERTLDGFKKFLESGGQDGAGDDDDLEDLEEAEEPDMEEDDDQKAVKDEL
Described as above. The note with it: read-out: Fold change versus DMSO control, P4HA1, 100 µM free compound A.
Description: as §1, §2, §3, §4, §5, §6, §7

Regarding `O=C(O)CNC(=O)C1C(=O)OC2(CCNCC2)OC1=O` [compound A, 2-(2,4-dioxo-1,5-dioxa-9-azaspiro[5.5]undecane-3-carboxamido)acetic acid hydrochloride], the remaining binding at 100 µM on C17ORF101 amounted to 67%; at P4HA1 (HL-60 nuclear lysate), 25%; at P4HA1 (K-562 nuclear lysate), 31%.
